Test results: patent publication US8889701B1, “Substituted (S)-(2R,3R,5R)-3-hydroxy-(5-pyrimidin-1-yl)tetrahydrofuran-2-ylmethyl aryl phosphoramidate” (Alla Chem, LLC, priority 2013, dated 2014)
Like-named read-outs stand apart in the source and are kept apart here.

Key:
[1] = test system: HCV replicon (genotype 1b, Con1 isolate) in human hepatoma cell line Huh7; test: HCV replicon assay (antiviral activity, anti-HCV core ELISA readout); type: cell-based; details: Hepatitis C virus, Huh-7, 72 h, read-out: EC50, activity against HCV genotype 1b
Description: The HCV replicon assay was used to determine the antiviral activity of substituted phosphoramidic acid esters of the general formula 1, 1.1, 1.2, 2, 2.1, and 2.2 (test compounds). The test cell line used in the HCV Replicon Assay was a human hepatoma cell line Huh7 incorporating the HCV replicon (genotype 1b, Con1 isolate). 96-well plates were seeded with cells at a density of 7.5×10^3 cells per well in 50 μl of assay media. Test compound stock solution was made up freshly in assay medium (DMEM 1×, Cellgro; cat. #10-013-CV) as a 2× stock. A total of 11 serial 3-fold dilutions of test compounds were prepared from the 2× stock in assay media ranging from 20 nM-0.2 pM final concentrations. At least 4 hours after cells were seeded, compound treatment was initiated by adding 50 μl of compound dilution to the plates. […] The final DMSO concentration was 0.5%. Cells and inhibitors incubated for 3 days at 37° C./5% CO2. Media was removed from the plates via gentle tapping. Cells were fixed with 100 μl 1:1 acetone:methanol for 1 minute, washed three times with PBS buffer, and then blocked with 150 μl/well 10% Fetal Bovine Serum (FBS) in PBS for 1 hour at room temperature. Cells were washed three times with PBS buffer, and incubated with 100 μl/well anti-hepatitis C core mAb (Affinity BioReagents; cat. # MA1-080, 1 mg/ml stock diluted 1:4,000 in 10% FBS-PBS) for 2 hours at 37° C. Cells were washed three times with PBS and incubated with 100 μl/well HRP-Goat Anti-Mouse antibody (diluted 1:3.500 in 10% FBS-PBS) for 1 hour at 37° C. Cells were washed three times with PBS and developed with 100 μl/well OPD solution (1 OPD tablet+12 ml citrate/phosphate buffer+5 μl 30% H2O2 per plate) for 30 minutes in the dark at room temperature. The reaction was stopped with 100 μl/well of 2N H2SO4, and absorbance measured at A490 X on a Victor^3 V 1420 multilabel counter (Perkin Elmer). The EC50 values were calculated for test compounds from the resulting best-fit equations determined by Xlfit software.

[2] = test system: HCV replicon (genotype 1b, Con1 isolate) in human hepatoma cell line Huh7; details: literature value, Murakami et al., J. Biol. Chem. 285(45), 34337-34347 (2010); read-out: EC50 of known inhibitor PSI-7851 (literature); cited from earlier work

Row | SMILES | EC50 [1] [µM] | EC50 [2] [µM]
1 | CN1CCCC(NP(=O)(OC[C@H]2O[C@@H](n3ccc(NC(=O)OCc4ccccc4)nc3=O)C(F)(F)[C@@H]2OC(=O)OCc2ccccc2)Oc2ccccc2)C1=O (stereo partly drawn) [1(7), benzyl 1-((2R,4R,5R)-4-(benzyloxycarbonyloxy)-3,3-difluoro-5-(((1-methyl-2-oxopiperidin-3-ylamino)(phenoxy)phosphoryloxy)methyl)tetrahydrofuran-2-yl)-2-oxo-1,2-dihydropyrimidin-4-ylcarbamate] | 0.552 | 
2 | CN1CCC(NP(=O)(OC[C@H]2O[C@@H](n3ccc(=O)[nH]c3=O)C(F)(F)[C@@H]2O[Si](C)(C)C(C)(C)C)Oc2ccccc2)C1=O (stereo partly drawn) [1.1.(4), ((2R,3R,5R)-3-(tert-butyldimethylsilyloxy)-5-(2,4-dioxo-3,4-dihydropyrimidin-1(2H)-yl)-4,4-difluorotetrahydrofuran-2-yl)methyl phenyl 1-methyl-2-oxopyrrolidin-3-ylphosphoramidate] | 0.0405 | 
3 | CN1CCC(N[P@](=O)(OC[C@H]2O[C@@H](n3ccc(N)nc3=O)C(F)(F)[C@@H]2O)Oc2ccccc2)C1=O (some centres unmarked) [2.2.(1)] | 0.219 | 
4 | C[C@@]1(F)[C@H](O)[C@@H](COP(=O)(N[C@H]2CCOC2=O)Oc2ccccc2)O[C@H]1n1ccc(=O)[nH]c1=O (stereo partly drawn) [1.1.(2), ((2R,3R,4R,5R)-5-(2,4-dioxo-3,4-dihydropyrimidin-1(2H)-yl)-4-fluoro-3-hydroxy-4-methyltetrahydrofuran-2-yl)methyl phenyl (S)-2-oxotetrahydrofuran-3-ylphosphoramidate] | 0.274 | 
5 | CN1CCCC(NP(=O)(OC[C@H]2O[C@@H](n3ccc(N)nc3=O)C(F)(F)[C@@H]2O)Oc2ccccc2)C1=O (stereo partly drawn) [1(8), ((2R,3R,5R)-5-(4-amino-2-oxopyrimidin-1(2H)-yl)-4,4-difluoro-3-hydroxytetrahydrofuran-2-yl)methyl phenyl 1-methyl-2-oxopiperidin-3-ylphosphoramidate] | 0.873 | 
6 | Nc1ccn([C@@H]2O[C@H](COP(=O)(N[C@H]3CCOC3=O)Oc3ccccc3)[C@@H](O)C2(F)F)c(=O)n1 (some centres unmarked) [1.2.(1)] | 0.0198 | 
7 | CC(=O)Nc1ccn([C@@H]2O[C@H](CO[P@@](=O)(N[C@H]3CCOC3=O)Oc3ccccc3)[C@@H](OC(C)=O)C2(F)F)c(=O)n1 [1(4), (2R,3R,5R)-5-(4-acetamido-2-oxopyrimidin-1(2H)-yl)-4,4-difluoro-2-(((S)—((S)-2-oxotetrahydrofuran-3-ylamino)(phenoxy)phosphoryloxy)methyl)tetrahydrofuran-3-yl acetate] | 0.0421 | 
8 | O=C1OCCC1NP(=O)(OC[C@H]1O[C@@H](n2ccc(=O)[nH]c2=O)C(F)(F)[C@@H]1O)Oc1ccccc1 (stereo partly drawn) [1.1.(1), ((2R,3R,5R)-5-(2,4-dioxo-3,4-dihydropyrimidin-1(2H)-yl)-4,4-difluoro-3-hydroxytetrahydrofuran-2-yl)methyl phenyl 2-oxotetrahydrofuran-3-ylphosphoramidate] | 0.459 | 
9 | CC(C)OC(=O)[C@H](C)NP(=O)(OC[C@H]1O[C@@H](n2ccc(=O)[nH]c2=O)[C@](C)(F)[C@@H]1O)Oc1ccccc1 (some centres unmarked) [PSI-7851, reference compound] | 0.0594 | 0.075
10 | CC(=O)O[C@@H]1[C@@H](COP(=O)(N[C@H]2CCOC2=O)Oc2ccccc2)O[C@@H](n2ccc(N)nc2=O)C1(F)F (stereo partly drawn) [1.2.(2), (2R,3R,5R)-5-(4-amino-2-oxopyrimidin-1(2H)-yl)-4,4-difluoro-2-((((S)-2-oxotetrahydrofuran-3-ylamino)(phenoxy)phosphoryloxy)methyl)tetrahydrofuran-3-yl acetate] | 0.027 | 
